These results are taken from US20070190651A1, “Myogenic Development and Protection of Stem Cells Against Inflammation and Apoptosis By Statins and Isoprenoid Pathway Inhibitors” (Board of Regents of the University of Texas System, priority 2006, published 2007).

In series [1] the test system is iNOS. In words: Immunoblotting for iNOS protein in cytokine-stimulated H9c2 cardiac myoblasts. The format is cell-based, rat. The procedure:
Cell cultures. H9c2 cells purchased from American Type Culture Collection (ATCC, Rockville, Md.) are spontaneously immortalized ventricular myoblasts from the rat embryo, with preservation of several electrical and biochemical characteristics found in adult cardiomyocytes. They were cultured in DMEM medium (ATCC) supplemented with 10% heat-inactivated fetal bovine serum (FBS) in 95% air and 5% CO2 at 37° C. […] After certain time intervals, 100 μL/well culture media were collected for determination of nitrite production.
Immunoblotting. Total proteins were isolated from rat cardiac myoblasts (H9c2 cells) or embryonic stem cells in an ice-cold lysis buffer containing 10 mmol/L Tris (tris(hydroxymethyl)aminomethane) (pH 7.4), 1% sodium dodecyl sulfate (SDS) and 1× protease inhibitor (1 mmol/L sodium orthovanadate). Proteins (15 μg/lane) were separated under the reducing conditions (125 mM Tris pH 6.8, 4% SDS, 10% glycerol, 0.006% bromophenol blue, 2% β-mercaptoethanol) by electrophoresis onto 5-10% SDS-polyacrylamide gel and electro-blotted to nitrocellulose membranes (Osmonics, Westborough, Mass.). The membranes were reversibly stained with Ponceau red (Sigma) to verify equal protein loading and/or transfer. After blocking in Tris-buffered saline (0.2 M Tris and 8% NaCl) containing 5% non-fat powdered milk and 0.1% Tween 20 for 1 hour at room temperature, the membranes were incubated overnight at 4° C. with following primary antibodies to (a) iNOS (Transduction Laboratories, Lexington, Ky.; BD Biosciences); (b) NF-κB p65/rel (Santa Cruz Biotechnologies, Santa Cruz, Calif.); (c) ser^32-phosphorylated inhibitor IκBα (Santa Cruz); (d) Bad (BD Biosciences, San Jose, Calif.); (e) Bcl-xL (BD Biosciences); (f) proliferating cell nuclear antigen (PCNA; BC Biosciences); (g) ryanodine receptor (Santa Cruze Biotechnology, Inc., Santa Cruz, Calif.); (h) α-sarcomeric actinin (Sigma); (i) myocardin A (developed by immunizing rabbits with a synthetic myocardin A peptide); (j) Tie-2 (Santa Cruz); (k) manganese superoxide dismutase (Santa Cruz); and (1) β-tubulin (Sigma). The blots were incubated with horseradish peroxidase-coupled secondary antibodies, washed and developed by using a SuperSignal West Pico Chemiluminescent Substrate Kit (Pierce, Rockford, Ill.). Intensity of each immunoreactive protein band was quantified by densitometric analysis. Cytokine-stimulated RAW 264.7 cells (Transduction Laboratories, Lexington, Ky.) were used as positive controls.
(In general: In western blotting, separated proteins are transferred to a membrane and probed.)

Series [2] concerns iNOS. In words: Nitrite production (Griess reaction) in H9c2 cardiac myoblasts. The conditions noted are these: added to simvastatin + IL-1α 20 ng/mL. Type of series: cell-based, rat. The procedure:
Cell cultures. H9c2 cells purchased from American Type Culture Collection (ATCC, Rockville, Md.) are spontaneously immortalized ventricular myoblasts from the rat embryo, with preservation of several electrical and biochemical characteristics found in adult cardiomyocytes. […] After certain time intervals, 100 μL/well culture media were collected for determination of nitrite production. Assay for NO Production. The activity of iNOS was determined in the culture medium by assaying nitrites, taken as an index of NO production, using the Griess reagent (1% sulphanilic acid and 0.1% N-[1-naphtyl] ethylenediamine-HCl in 5% phosphoric acid) as reported previously (4,18,19). Equal volumes of medium and Griess reagent were mixed, and the purple products quantified spectrophotometrically at 550 nm. Nitrite concentrations were determined from a linear standard curve constructed with known concentrations of sodium nitrite (0 to 40 μmol/L nitrite). Nitrite Assays. Nitrite, a stable end-product of nitric oxide, was measured by using Griess reagent (1% sulphanilic acid and 0.1% N-[1-naphtyl] ethylenediamine-HCl in 5% phosphoric acid). Equal volumes of medium and Griess reagent were mixed, and the resulting purple product quantified by spectrophotometric assay at 550 nm. Nitrite concentrations were calculated from a linear standard curve constructed with known concentrations of sodium nitrite (0-14 μmol/L nitrite) (19).
Background: Griess reagent forms a coloured azo dye with nitrite.

The subject of a further series is NF-κB p65/RelA. Description: Immunoblotting for p65/RelA subunit of NF-κB, total cellular or nuclear proteins of H9c2 cells. The format is cell-based, rat. The conditions noted are these: simvastatin + IL-1α + L-mevalonate.
Series [3] has as its system murine embryonic stem cells. Type of series: cell-based. The procedure:
At day 12, the number of contracting EB outgrowths (Panel A) and extension of beating area (Panel B) were detrmined by morphometry. The results were plotted as percentages of the total EBs counted in each well and shown as the mean ±SD for each of the 3 separate experiments. *, P<0.05 vs untreated control; #, P<0.05 vs simvastatin-treated control.
The murine ESC (mESC) line CCE was obtained from American Type Culture Collection (ATCC, Rockville, Md.). Murine ESCs were cultured without feeder cells in Dulbecco's modified Eagle's medium supplemented with 10% ESC-qualified Fetal Bovine Serum (FBS) (Stem Cell Technologies, Vancouver, Va.), pyruvate (Stem Cell Technologies, stock solution diluted 1:100), 2 mM L-glutamine, nonessential amino acids (Stem Cell Technologies, stock solution diluted 1:100), 100 IU/mL penicillin, 0.1 mg/mL streptomycin, and leukemia inhibitory factor (LIF) (Stem Cell Technologies). To induce differentiation, EBs were formed from undifferentiated mESCs in hanging drops of 400 cells in 20 μL of medium without LIF. After 5 days in suspension, EBs were plated on gelatin-coated dishes and cultured in cardiomyocyte-differentiation medium (Iscove's modified Eagle's medium, supplemented with 15% FBS, 2 mM L-glutamine, 5×10^−5 M β-mercaptoethanol, nonessential aminoacids, 100 IU/mL penicillin, 0.1 mg/mL streptomycin).
Statin Treatment. […] The inhibition of endogenous cholesterol synthesis was the mechanism used for analyzing the effect of endogenous cholesterol depletion on EB differentiation. By days 8 through 12 after plating, spontaneously contracting cell clusters could be observed within the EB outgrowths. Culture media from both simvastatin-treated and untreated cells were changed each day after day 3.
Spontaneous cardiac differentiation of mouse embryonic stem cells (mESCs) was assessed in vitro as the presence of rhythmically beating […] (EB) outgrowth. […] Thereafter, EB outgrowths were counted periodically under the inverted microscope equipped with a digital video camera, to determine whether or not they contained beating foci at different time points (days 3, 5, 7, 10, 12, and 14). At approximately day 7, contracting areas began to appear. […] Concomitant with the increased number of beating EBs, the size of the beating area for simvastatin-treated EBs increased 2-fold (evaluated at day 12) compared to that of untreated control EBs, a significant augmentation (p<0.05) (FIG. 22B).

Series [4] deals with H9c2 embryonic myoblasts. In words: Immunoblotting for Bad, Bcl-xL and PCNA in H9c2 embryonic myoblasts with IL-1. The format is cell-based, rat. The settings on record: L-mevalonate added to simvastatin + IL-1. The procedure: Quantitation of protein bands was achieved by densitometry (Panels D, E and F, bottom). β-Tubulin staining of stripped blots was used as a control. […] PCNA, proliferating cell nuclear antigen; IL-1, interleukin-1-α; iNOS, inducible nitric oxide synthase; MnSOD, manganese superoxide dismutase.
(§1) The rat embryonic myogenic cell line H9c2 was commercially obtained from ATCC and maintained in Dulbecco's modified Eagle's medium (GIBCO) supplemented with 10% FBS at 37° C. in 95% air and 5% CO2.
(§2) Immunoblotting. Total proteins were isolated from rat cardiac myoblasts (H9c2 cells) or embryonic stem cells in an ice-cold lysis buffer containing 10 mmol/L Tris (tris(hydroxymethyl)aminomethane) (pH 7.4), 1% sodium dodecyl sulfate (SDS) and 1× protease inhibitor (1 mmol/L sodium orthovanadate). Proteins (15 μg/lane) were separated under the reducing conditions (125 mM Tris pH 6.8, 4% SDS, 10% glycerol, 0.006% bromophenol blue, 2% β-mercaptoethanol) by electrophoresis onto 5-10% SDS-polyacrylamide gel and electro-blotted to nitrocellulose membranes (Osmonics, Westborough, Mass.). The membranes were reversibly stained with Ponceau red (Sigma) to verify equal protein loading and/or transfer. […] Intensity of each immunoreactive protein band was quantified by densitometric analysis. […]

The test system of series [5] is H9c2 embryonic myoblasts. Description: Apoptosis assay (acridine orange and ethidium bromide) in H9c2 embryonic myoblasts. The conditions noted are these: mevalonate 10^−4 mol/l with IL-1 + simvastatin. The format is cell-based, rat. The procedure:
The cells were exposed with IL-1αSimvastatin for 24 hours and then stained with two fluorochromes: acridine orange and ethidium bromide. Living (green fluorescence) and apoptotic (red fluorescence) cells were identified and counted with an Olympus fluorescence microscope connected to a computer imaging station.
as §1
Assays for Apoptosis. Analysis of apoptotic cells was performed by fluorescent microscopy with fluorochromes acridine orange and ethidium bromide (Sigma), as described previously (19). Apoptotic cells were discernible by their condensed, fragmented nuclei stained with both fluorochromes and were counted under a fluorescence microscope (Olympus, Center Valley, Pa.) connected to a computer imaging analysis station.

Series [6] has as its system iNOS. The conditions noted are these: cited from earlier work.
The conditions of series [7]: injected subcutaneously over the calvaria of mice; cited from earlier work.
For series [8] the following is noted: orally administered to rats; cited from earlier work.
In the next series the test system is Rho kinase. The settings on record: cited from earlier work.
Series [9] relates to iNOS. The settings on record: lovastatin pretreatment; cited from earlier work.
The test system of another series is NF-κB. The settings on record: cited from earlier work.
A further series deals with IκBα. In words: Immunoblotting for ser32 phosphorylated IκBα in H9c2 cells. The settings on record: 24 h. The format is cell-based, rat. The procedure: Immunoreactive bands were quantified by densitometry (Panel B).
as §2

Entries after “also recorded” stand apart in the source; their conditions may differ.

As for `CC(O)(CCO)CC(=O)O` [L-mevalonate], in the series on iNOS [1] (H9c2, added to simvastatin + IL-1α or TNF-α), the “effect on simvastatin inhibition of cytokine-induced iNOS protein expression” value was “reversibly blocked; also recorded: blocks the simvastatin inhibitory effect; also recorded: diminished the inhibitory effect of simvastatin”. Moreover, the “cytokine-induced iNOS protein expression in the absence of simvastatin” value with iNOS [1] (H9c2, cytokine-stimulated, no simvastatin) is listed as “no or little effect on cytokine-induced iNOS expression”. The “effect on nitrite production in cells treated with simvastatin plus IL-1α” value in the series with iNOS [2] is on record as “significantly increased the nitrite concentrations”. For the same compound, the “nuclear p65/rel protein levels in statin-treated, cytokine-stimulated cells” value with NF-κB p65/RelA is “could elevate the nuclear p65/rel protein levels”. Moreover, the “cytotoxicity in EBs” value in [3] was “without any cytotoxicity”. Besides, the “contracting EBs in the absence of simvastatin” value in series [3] (L-mevalonate alone) is recorded as “no or little effect on contracting EBs”. The “effect on the simvastatin effect on Bcl-xL” value in the series on H9c2 embryonic myoblasts [4] is listed as “reversed the statin effect”. Also, in the series with H9c2 embryonic myoblasts [5], the “effect on the simvastatin cytoprotective effect” value is given as “diminished”.
As for `CC[C@H](C)C(=O)O[C@H]1C[C@@H](C)C=C2C=C[C@H](C)[C@H](CC[C@@H]3C[C@@H](O)CC(=O)O3)[C@H]21` [lovastatin], in the series with iNOS [6] (rat macrophages, astrocytes, and microglia), the “iNOS and cytokine expression” value is “inhibits iNOS and cytokine expression”. The “LPS-induced iNOS expression” value in the series with iNOS [6] (rat primary astrocytes) is “blocks LPS-induced iNOS expression”. For the same compound, the bone formation entry in series [7] is on record as “increase bone formation”. Besides, in [8], the cancellous bone volume entry is on record as “increased cancellous bone volume”. Moreover, the Rho kinase activity result in the series on Rho kinase is “inhibit the Rho kinase activity”. Besides, in the series on iNOS [9], the “IL-1beta induction of iNOS” value is “superinduction of iNOS”.
In the case of `CC[C@H](C)C(=O)O[C@H]1CCC=C2C=C[C@H](C)[C@H](CC[C@@H]3C[C@@H](O)CC(=O)O3)[C@H]21` [mevastatin], the “NF-κB activity and NF-κB-dependent VCAM and E-selectin expression” value with NF-κB was “inactivate NF-κB and reduce NF-κB-dependent expression of the endothelial adhesion proteins”.
In the case of `CCC(C)(C)C(=O)O[C@H]1C[C@@H](C)C=C2C=C[C@H](C)[C@H](CC[C@@H]3C[C@@H](O)CC(=O)O3)[C@H]21` [simvastatin], the “lowest concentration achieving the inhibitory effect on iNOS expression” value with iNOS [1] (H9c2, cytokine-stimulated) is recorded as 10^−8 mol/L. Also, the “concentration giving the highest levels of phosphorylated IκBα” value in the series on IκBα is 10^−7 mol/L. In addition, the “size of the beating area, increase compared to untreated control EBs” value in series [3] (day 12) was 2 fold. Further, the “percentage of beating EB outgrowths” value in series [3] (day 12, simvastatin, untreated control 18±0.1%) was 42±0.1%.
